Numbers after ± are expanded uncertainties.
Details: Liquid, Ebulliometric method (Recirculating still)

SMILES | vapor or sublimation pressure (288.15 K) | vapor or sublimation pressure (298.15 K) | vapor or sublimation pressure (308.15 K)
CCC(C)Cl (stereo not given) [2-chlorobutane] | 13.36 ± 0.1 kPa | 20.91 ± 0.1 kPa | 31.55 ± 0.11 kPa
CCCCCCC [heptane] | 3.63 ± 0.1 kPa | 6.095 ± 0.1 kPa | 9.865 ± 0.1 kPa
CC(C)(C)Cl [2-chloro-2-methylpropane] | 26.42 ± 0.11 kPa | 40.13 ± 0.11 kPa | 59.52 ± 0.12 kPa
CCCCCl [1-chlorobutane] | 8.4 ± 0.1 kPa | 13.52 ± 0.1 kPa | 21.04 ± 0.1 kPa
CC(C)CCl [1-chloro-2-methylpropane] | 13 ± 0.1 kPa | 20.35 ± 0.1 kPa | 30.45 ± 0.11 kPa

— the NIST ThermoML archive (doi:10.1016/j.fluid.2015.09.031)
